Like-named read-outs stand apart in the source and are kept apart here.
Columns and labels:
Type in all cases: cell-based, human
[1] = system: HL-60; assay: ATP luminescence proliferation assay, HL-60
Summary of the method: (§1)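 Read-out: luminescent ATP cell viability after 48, 72 or 96 h incubation, as noted, with 1:3 serial dilutions of unconjugated compounds or their conjugates. Plating was 1.0×10^3 cells/well, 3 h before dosing. EC50 = concentration giving 50% inhibition of proliferation.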

[2] = system: SW-480; assay: ATP luminescence proliferation assay, SW-480
Procedure: (§2) This example generally describes the procedures used to assay the antiproliferative activity of compounds of this invention or their conjugates. Human tumor cell lines were obtained from the American Type Culture Collection (ATCC), P.O. Box 1549, Manassas, Va. 20108, USA, and cultured according to instruction from the ATCC. Cells were seeded at 1.0×10^3 or 1.0×10^4 cells/well in 96-well plates for 3 h for ATP assays or ^3H thymidine assays, respectively. 1:3 serial dilutions of free (unconjugated) compounds or their conjugates were added to the wells. Plates were allowed to incubate for 24 to 72 h. The ^3H thymidine plates were pulsed with 1.0 μCi of ^3H-thymidine per well for the last 24 hours of the total incubation period, harvested, and read on a Top Count Scintillation Counter (Packard Instruments, Meriden, Conn.). ATP levels in the ATP plates were measured using the […]-GLO® Luminescent Cell Viability kit following the manufacturer's manual and read on a GLOMAX® 20/20 luminometer (both from Promega, Madison, Wis., USA). The EC50 values—the concentration at which an agent inhibits or reduces cell proliferation by 50% —were determined using PRISM™ software, version 4.0 (GraphPad Software, La Jolla, Calif., USA).
(§3) Using the ^3H thymidine or the ATP luminescence assay, or both, the activities of compounds of this invention were assayed against the following cancer cell lines: HCT-15 (colorectal cancer, multi-drug resistant (MDR)); Hep3B (liver cancer); LNCaP (prostate cancer, androgen receptor positive (AR^+)); MDA-MB-231 (breast cancer, estrogen receptor, progesterone receptor, and Her2 negative (triple negative)); A2058 (melanoma); U-87 MG (glioblastoma); NCI-H460 (NSCLC); A549 (NSCLC); HPAC (pancreatic cancer, primary); PC3 (prostate cancer, AR); BT474 (breast cancer, Her2 highly positive (Her2hi)); SKOV3 (ovarian cancer, Her2hi); 786-O (renal cancer); UO-31 (renal cancer, MDR); NCI-H740 (SCLC); DMS53 (SCLC); SK-BR3 (breast cancer, Her2hi); ZR-75 (breast cancer, estrogen receptor positive); OVCAR3 (ovarian cancer); HL-60 (APL); OVCAR8/Adr (ovarian cancer, MDR); CEM-Cl (ALL); Nomo-1 (AML); RPMI-8226 (MM)); Raji (lymphoma); SW-480 (colorectal cancer, metastatic); SW-620 (colorectal cancer); and H226 (lung cancer). (Not all compounds were assayed against all cell lines.)
(§4) Table 3 provides the data for the ATP luminescence proliferation assays, with an incubation period of 48, 72, or 96 h, as noted.

[3] = system: NCI-H460; assay: 3H thymidine proliferation assay, NCI-H460
Summary of the method: (§5)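 Cells seeded at 1.0×10^4 cells/well for 3 h, then exposed to 1:3 serial dilutions of free compounds or conjugates for 72 h. 1.0 μCi ^3H-thymidine per well was added for the last 24 h, and incorporation was read by scintillation counting. EC50 is the concentration reducing proliferation by 50%.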

[4] = system: CEM-Cl; assay: ATP luminescence proliferation assay, CEM-C1
Procedure: as §2, §3, §4

[5] = system: HCT-15; assay: ATP luminescence proliferation assay, HCT-15
Summary of the method: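 ATP luminescence read-out after 48, 72 or 96 h exposure to 1:3 serially diluted unconjugated compounds or conjugates; 1.0×10^3 cells/well plated 3 h before dosing. EC50 = 50% reduction of proliferation.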

[6] = system: HPAC; assay: ATP luminescence proliferation assay, HPAC
Procedure: as §2, §3, §4

[7] = system: MDA-MB-231; assay: 3H thymidine proliferation assay, MDA-MB-231
Summary of the method: as §5

[8] = system: NCI-H460; assay: ATP luminescence proliferation assay, NCI-H460
Procedure: as §2, §3, §4

[9] = system: PC3; assay: 3H thymidine proliferation assay, PC3
Summary of the method: as §5

[10] = system: ZR-75; assay: ATP luminescence proliferation assay, ZR-75
Procedure: as §2, §3, §4

[11] = system: SK-BR3; assay: 3H thymidine proliferation assay, SK-BR3; conditions: 3H thymidine method, 72 h incubation
Summary of the method: as §5

[12] = system: 786-O; assay: 3H thymidine proliferation assay, 786-O
Summary of the method: as §5

[13] = system: HPAC; assay: 3H thymidine proliferation assay, HPAC
Summary of the method: as §5

[14] = system: 786-O; assay: ATP luminescence proliferation assay, 786-O
Summary of the method: as §1

[15] = system: RPMI-8226; assay: ATP luminescence proliferation assay, RPMI-8226
Procedure: as §2, §3, §4

[16] = system: SKOV3; assay: ATP luminescence proliferation assay, SKOV3
Procedure: as §2, §3, §4

[17] = system: SW-620; assay: ATP luminescence proliferation assay, SW-620
Procedure: as §2, §3, §4

[18] = system: U-87 MG; assay: 3H thymidine proliferation assay, U-87 MG
Summary of the method: as §5

[19] = Homo sapiens, HL-60, 48 h, read-out: EC50 HL-60 (48 h), ATP luminescence, HL-60, 48 h incubation
[20] = Homo sapiens, SW480, 96 h, read-out: EC50 SW480 (96 h), ATP luminescence, SW480, 96 h incubation
[21] = Homo sapiens, NCI-H460, read-out: EC50, NCI-H460, 3H thymidine method, 72 h incubation
[22] = Homo sapiens, CEM/C1, 72 h, read-out: EC50 CEM-C1 (72 h), ATP luminescence, CEM-C1, 72 h incubation
[23] = Homo sapiens, HCT-15, 72 h, read-out: EC50 HCT-15 (72 h), ATP luminescence, HCT-15, 72 h incubation
[24] = Homo sapiens, 72 h, read-out: EC50 HPAC (72 h), ATP luminescence, HPAC, 72 h incubation
[25] = Homo sapiens, MDA-MB-231, read-out: EC50, MDA-MB-231, 3H thymidine method, 72 h incubation
[26] = Homo sapiens, NCI-H460, 72 h, read-out: EC50 NCI-H460 (72 h), ATP luminescence, NCI-H460, 72 h incubation
[27] = Homo sapiens, PC-3, read-out: EC50, PC3, 3H thymidine method, 72 h incubation
[28] = Homo sapiens, ZR75, 48 h, read-out: EC50 ZR-75 (48 h), ATP luminescence, ZR-75, 48 h incubation
[29] = Homo sapiens, 786-0, read-out: EC50, 786-O, 3H thymidine method, 72 h incubation
[30] = Homo sapiens, HPAC, read-out: EC50, HPAC, 3H thymidine method, 72 h incubation
[31] = Homo sapiens, 786-0, 72 h, read-out: EC50 786-O (72 h), ATP luminescence, 786-O, 72 h incubation
[32] = Homo sapiens, RPMI-8226, 72 h, read-out: EC50 RPMI-8226 (72 h), ATP luminescence, RPMI-8226, 72 h incubation
[33] = Homo sapiens, SK-OV-3, 72 h, read-out: EC50 SKOV3 (72 h), ATP luminescence, SKOV3, 72 h incubation
[34] = Homo sapiens, SW-620, 96 h, read-out: EC50 SW-620 (96 h), ATP luminescence, SW-620, 96 h incubation
[35] = Homo sapiens, U-87 MG, read-out: EC50, U-87 MG, 3H thymidine method, 72 h incubation

SMILES	EC50 [1, 19] [nM]	EC50 [2, 20] [nM]	EC50 [3, 21] [nM]	EC50 [4, 22] [nM]	EC50 [5, 23] [nM]	EC50 [6, 24] [nM]	EC50 [7, 25] [nM]	EC50 [8, 26] [nM]	EC50 [9, 27] [nM]	EC50 [10, 28] [nM]	EC50 ([11]; Homo sapiens, SK-BR-3) [nM]	EC50 [12, 29] [nM]	EC50 [13, 30] [nM]	EC50 [14, 31] [nM]	EC50 [15, 32] [nM]	EC50 [16, 33] [nM]	EC50 [17, 34] [nM]	EC50 [18, 35] [nM]	also measured
CC[C@H](C)[C@H](NC(=O)[C@H]1CCCCN1C)C(=O)N(COC(=O)CC(C)C)[C@H](C[C@@H](OC(C)=O)c1nc(C(=O)N[C@@H](Cc2ccc(N)cc2)CC(C)C(=O)O)cs1)C(C)C (stereo partly drawn) [Compound 54]	2.5	1.6	0.31	1.2	2.6	0.96	1.6	1.6	0.82	9.6	1.1	6.9	0.83	2.6	1.6	1.3	1.1	0.11	
CC[C@H](C)[C@H](NC(=O)[C@H]1CCCCN1C)C(=O)N(C)[C@H](C[C@@H](OC(C)=O)c1nc(C(=O)N[C@@H](Cc2ccc(N)cc2)CC(C)C(=O)O)cs1)C(C)C (stereo partly drawn) [Compound 36]	114	81	52	40	96	2.9	> 100	16	66	> 300	> 100	> 100	83	183	62	45	45	15	
CC[C@H](C)[C@H](NC(=O)[C@H]1CCCCN1C)C(=O)N(C)[C@H](C[C@@H](OC)c1nc(C(=O)N[C@@H](Cc2ccccc2)C(=O)N[C@@H](C)C(=O)OC)cs1)C(C)C [Compound 24]		42	> 100	8.7	188	1.1	33	23	63	8.4	> 100	> 100	> 100	36	8.4	13	10	18	EC50 ([1]; Homo sapiens, HL-60, 72 h, read-out: EC50 HL-60 (72 h), ATP luminescence, HL-60, 72 h incubation): 6.4 nM
CC[C@H](C)[C@H](NC(=O)[C@H]1CCCCN1C)C(=O)N(C)[C@H](C[C@@H](OC)c1nc(C(=O)N[C@H](CC(=O)OC)Cc2ccccc2)cs1)C(C)C [Compound 25]	224	261	306	176	366	97	236	177	319	1000	1710	1860	206	306	235	109	193	271	
CC[C@H](C)[C@H](NC(=O)[C@H]1CCCCN1C)C(=O)N(COC(=O)CC(C)C)[C@H](C[C@@H](OC(C)=O)c1nc(C(=O)N[C@@H](Cc2ccccc2)C(=O)OC)cs1)C(C)C [Compound 29]																			EC50 ([1]; ATP luminescence, HL-60, 48 h incubation, read-out: EC50 HL-60 (48 h)): 0.59 nM; EC50 ([2]; ATP luminescence, SW480, 96 h incubation, read-out: EC50 SW480 (96 h)): 2.7 nM; EC50 ([3]; 3H thymidine method, 72 h incubation, read-out: EC50, NCI-H460): 0.21 nM; EC50 ([4]; ATP luminescence, CEM-C1, 72 h incubation, read-out: EC50 CEM-C1 (72 h)): 0.85 nM; EC50 ([5]; ATP luminescence, HCT-15, 72 h incubation, read-out: EC50 HCT-15 (72 h)): 4.5 nM; EC50 ([6]; ATP luminescence, 72 h incubation, read-out: EC50 HPAC (72 h)): 4.9 nM; EC50 ([7]; 3H thymidine method, 72 h incubation, read-out: EC50, MDA-MB-231): 0.13 nM; EC50 ([8]; ATP luminescence, NCI-H460, 72 h incubation, read-out: EC50 NCI-H460 (72 h)): 3 nM; EC50 ([9]; 3H thymidine method, 72 h incubation, read-out: EC50, PC3): 0.21 nM; EC50 ([10]; ATP luminescence, ZR-75, 48 h incubation, read-out: EC50 ZR-75 (48 h)): 15 nM; EC50 [11]: 1.1 nM; EC50 ([12]; 3H thymidine method, 72 h incubation, read-out: EC50, 786-O): 1.2 nM; EC50 ([13]; 3H thymidine method, 72 h incubation, read-out: EC50, HPAC): 0.069 nM; EC50 ([14]; ATP luminescence, 786-O, 72 h incubation, read-out: EC50 786-O (72 h)): 2.8 nM; EC50 ([15]; ATP luminescence, RPMI-8226, 72 h incubation, read-out: EC50 RPMI-8226 (72 h)): 1 nM; EC50 ([16]; ATP luminescence, SKOV3, 72 h incubation, read-out: EC50 SKOV3 (72 h)): 1.3 nM; EC50 ([17]; ATP luminescence, SW-620, 96 h incubation, read-out: EC50 SW-620 (96 h)): 1.5 nM; EC50 ([18]; 3H thymidine method, 72 h incubation, read-out: EC50, U-87 MG): 0.064 nM

— US20130204033A1, “ANTIPROLIFERATIVE COMPOUNDS, CONJUGATES THEREOF, METHODS THEREFOR, AND USES THEREOF” (Medarex, Inc., priority 2009, published 2013)
